Biological target: T1, Organic anion transporter 1 (hOAT1) (Homo sapiens, UniProt Q4U2R8)
T1 construct: gene SLC22A6
T1 sequence (Q4U2R8 1-563): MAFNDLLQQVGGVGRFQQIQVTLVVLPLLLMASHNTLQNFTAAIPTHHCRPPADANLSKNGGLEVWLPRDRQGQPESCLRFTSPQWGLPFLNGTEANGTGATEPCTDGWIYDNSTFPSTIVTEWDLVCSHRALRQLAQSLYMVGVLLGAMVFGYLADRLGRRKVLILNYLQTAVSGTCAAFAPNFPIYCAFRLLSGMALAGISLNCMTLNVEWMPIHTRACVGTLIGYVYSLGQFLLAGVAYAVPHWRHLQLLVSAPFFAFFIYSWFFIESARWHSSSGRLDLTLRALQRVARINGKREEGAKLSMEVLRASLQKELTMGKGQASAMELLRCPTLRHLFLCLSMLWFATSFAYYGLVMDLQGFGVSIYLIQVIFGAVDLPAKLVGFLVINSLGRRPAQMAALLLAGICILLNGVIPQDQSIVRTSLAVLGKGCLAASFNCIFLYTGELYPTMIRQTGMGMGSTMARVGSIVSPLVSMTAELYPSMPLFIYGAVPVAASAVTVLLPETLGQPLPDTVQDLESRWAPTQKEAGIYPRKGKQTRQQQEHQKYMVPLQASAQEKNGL
Experiment: competitive inhibition of 6-carboxyfluorescein uptake in hOAT1-overexpressing HEK293 cells
Assay type: cell-based

- IC50: 103 µM
Compound: CCCCCCCCCCCCCCC(=O)O [Pentadecanoic acid]
